Assays:
Assay in all cases: microbe, parasite or virus in culture
[1] = system: ABC clinical isolates with SUL-DUR MIC > 4 µg/mL; assay type: cell-based, Acinetobacter baumannii-calcoaceticus complex
Method in brief: (§1)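 Broth microdilution MICs following CLSI methods, interpreted with CLSI breakpoints where available. Sulbactam tested as twofold dilutions combined with fixed 4 µg/mL durlobactam.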

[2] = system: A. baumannii clinical isolates; assay type: cell-based
Method in brief: as §1

[3] = system: A. nosocomialis clinical isolate; assay type: cell-based; details: isolate ARC7023 (IHMA 2118812), France, BSI, 2019
Method in brief: as §1

[4] = system: A. pittii clinical isolates; assay type: cell-based
Method in brief: as §1

For colistin [CST], the MIC50 [1] was 0.5 µg/mL, the MIC90 [1] was 1 µg/mL and the “MIC Max” value [1] was greater than 8 µg/mL. The “MIC Min” value [1] was no more than 0.25 µg/mL, the MIC ([2]; isolate ARC6644 (IHMA 1420327), Mexico, UTI, 2016) was no more than 0.25 µg/mL and the MIC ([2]; isolate ARC6645 (IHMA 1435703), France, UTI, 2016) was no more than 0.25 µg/mL. It also gave an MIC ([2]; isolate ARC6646 (IHMA 1484127), United States, RTI, 2016) of 0.5 µg/mL, an MIC ([2]; isolate ARC6647 (IHMA 1386786), Argentina, RTI, 2016) of 0.5 µg/mL and an MIC ([2]; isolate ARC6648 (IHMA 1407634), Spain, RTI, 2016) of no more than 0.25 µg/mL. The MIC ([2]; isolate ARC6650 (IHMA 1457337), Argentina, RTI, 2016) was 0.5 µg/mL, the MIC ([2]; isolate ARC6652 (IHMA 1465642), Belgium, RTI, 2016) was no more than 0.25 µg/mL and the MIC ([2]; isolate ARC6653 (IHMA 1308777), Vietnam, RTI, 2016) was 0.5 µg/mL. The MIC ([2]; isolate ARC6799 (IHMA 1562935), Spain, UTI, 2017) was 0.5 µg/mL, the MIC ([2]; isolate ARC6800 (IHMA 1557526), Turkey, RTI, 2017) was greater than 8 µg/mL and the MIC ([2]; isolate ARC6801 (IHMA 1662094), Thailand, RTI, 2017) was no more than 0.25 µg/mL. For the same substance, the MIC ([2]; isolate ARC6802 (IHMA 1557073), Spain, UTI, 2017) was no more than 0.25 µg/mL, the MIC ([2]; isolate ARC6803 (IHMA 1589408), Belgium, UTI, 2017) was no more than 0.25 µg/mL and the MIC ([2]; isolate ARC6805 (IHMA 1558650), United States, RTI, 2017) was no more than 0.25 µg/mL. For the same substance, the MIC ([2]; isolate ARC6808 (IHMA 1557168), Spain, RTI, 2017) was no more than 0.25 µg/mL, the MIC ([2]; isolate ARC6809 (IHMA 1699528), Guatemala, RTI, 2017) was 0.5 µg/mL and the MIC ([2]; isolate ARC6810 (IHMA 1699548), Guatemala, RTI, 2017) was 0.5 µg/mL. The MIC ([2]; isolate ARC6812 (IHMA 1699530), Guatemala, RTI, 2017) was 0.5 µg/mL, the MIC ([2]; isolate ARC6813 (IHMA 1699543), Guatemala, UTI, 2017) was no more than 0.25 µg/mL and the MIC ([2]; isolate ARC6814 (IHMA 1699512), Guatemala, RTI, 2017) was 0.5 µg/mL. The MIC ([2]; isolate ARC6815 (IHMA 1699513), Guatemala, RTI, 2017) was 0.5 µg/mL, the MIC ([2]; isolate ARC6816 (IHMA 1699521), Guatemala, RTI, 2017) was 0.5 µg/mL and the MIC ([2]; isolate ARC6817 (IHMA 1699523), Guatemala, RTI, 2017) was 0.5 µg/mL. The MIC ([2]; isolate ARC6818 (IHMA 1683261), Thailand, RTI, 2017) was no more than 0.25 µg/mL, the MIC ([2]; isolate ARC6819 (IHMA 1683267), Thailand, RTI, 2017) was 1 µg/mL and the MIC ([2]; isolate ARC6820 (IHMA 1647876), Argentina, RTI, 2017) was no more than 0.25 µg/mL. For the same substance, the MIC ([2]; isolate ARC6821 (IHMA 1699517), Guatemala, RTI, 2017) was 0.5 µg/mL, the MIC ([2]; isolate ARC6822 (IHMA 1637626), Guatemala, RTI, 2017) was 0.5 µg/mL and the MIC ([2]; isolate ARC6823 (IHMA 1620872), Greece, SSSI, 2017) was 1 µg/mL. For the same substance, the MIC ([2]; isolate ARC6824 (IHMA 1625487), Argentina, BSI, 2017) was 1 µg/mL, the MIC ([2]; isolate ARC6937 (IHMA 1562926), Spain, UTI, 2017) was 0.5 µg/mL and the MIC ([2]; isolate ARC6950 (IHMA 1820064), Israel, RTI, 2018) was 0.5 µg/mL. The MIC ([2]; isolate ARC6953 (IHMA 1909827), Turkey, IAI, 2018) was 0.5 µg/mL, the MIC ([2]; isolate ARC6954 (IHMA 1838192), Guatemala, SSSI, 2018) was 0.5 µg/mL and the MIC ([2]; isolate ARC6955 (IHMA 1825425), United States, RTI, 2018) was 0.5 µg/mL. It also gave an MIC ([2]; isolate ARC7008 (IHMA 2009813), Thailand, BSI, 2019) of 0.5 µg/mL, an MIC ([2]; isolate ARC7009 (IHMA 2043611), United States, UTI, 2019) of 0.5 µg/mL and an MIC ([2]; isolate ARC7010 (IHMA 2043398), United States, RTI, 2019) of 0.5 µg/mL. The MIC ([2]; isolate ARC7011 (IHMA 2104553), Germany, RTI, 2019) was 0.5 µg/mL, the MIC ([2]; isolate ARC7012 (IHMA 2010001), Thailand, RTI, 2019) was 1 µg/mL and the MIC ([2]; isolate ARC7013 (IHMA 1962831), Argentina, RTI, 2019) was 0.5 µg/mL. It also gave an MIC ([2]; isolate ARC7014 (IHMA 2045328), Guatemala, IAI, 2019) of 1 µg/mL, an MIC ([2]; isolate ARC7015 (IHMA 2045327), Guatemala, UTI, 2019) of 0.5 µg/mL and an MIC ([2]; isolate ARC7016 (IHMA 2148441), Brazil, BSI, 2019) of 0.5 µg/mL. For the same substance, the MIC ([2]; isolate ARC7017 (IHMA 2148446), Brazil, BSI, 2019) was no more than 0.25 µg/mL, the MIC ([2]; isolate ARC7018 (IHMA 2045454), Guatemala, IAI, 2019) was 0.5 µg/mL and the MIC ([2]; isolate ARC7019 (IHMA 2114463), Thailand, RTI, 2019) was 0.5 µg/mL. For the same substance, the MIC ([2]; isolate ARC7020 (IHMA 2045326), Guatemala, RTI, 2019) was 0.5 µg/mL, the MIC ([2]; isolate ARC7021 (IHMA 1966347), Guatemala, RTI, 2019) was 1 µg/mL and the MIC ([2]; isolate ARC7022 (IHMA 2045319), Guatemala, IAI, 2019) was 0.5 µg/mL. The MIC ([2]; isolate ARC7024 (IHMA 2059448), Turkey, RTI, 2019) was 1 µg/mL, the MIC ([2]; isolate ARC7025 (IHMA 2002121), Spain, RTI, 2019) was 0.5 µg/mL and the MIC ([2]; isolate ARC7026 (IHMA 2104494), Guatemala, BSI, 2019) was 0.5 µg/mL. The MIC ([2]; isolate ARC7082 (IHMA 2160640), Belgium, BSI, 2020) was no more than 0.25 µg/mL, the MIC ([2]; isolate ARC7083 (IHMA 2163687), United States, RTI, 2020) was 0.5 µg/mL and the MIC ([2]; isolate ARC7084 (IHMA 2189596), Germany, RTI, 2020) was no more than 0.25 µg/mL. It also gave an MIC ([2]; isolate ARC7085 (IHMA 2205747), Guatemala, IAI, 2020) of no more than 0.25 µg/mL, an MIC ([2]; isolate ARC7086 (IHMA 2207563), Israel, RTI, 2020) of no more than 0.25 µg/mL and an MIC ([2]; isolate ARC7088 (IHMA 2215554), Turkey, BSI, 2020) of no more than 0.25 µg/mL. The MIC ([2]; isolate ARC7089 (IHMA 2240345), Argentina, BSI, 2020) was no more than 0.25 µg/mL, the MIC ([2]; isolate ARC7090 (IHMA 2244410), Poland, RTI, 2020) was greater than 8 µg/mL and the MIC ([2]; isolate ARC7091 (IHMA 2244564), Australia, RTI, 2020) was no more than 0.25 µg/mL. It also gave an MIC ([2]; isolate ARC7092 (IHMA 2258772), United States, BSI, 2020) of 0.5 µg/mL, an MIC ([2]; isolate ARC7093 (IHMA 2258783), United States, RTI, 2020) of no more than 0.25 µg/mL and an MIC ([2]; isolate ARC7094 (IHMA 2296423), Turkey, RTI, 2020) of no more than 0.25 µg/mL. The MIC ([2]; isolate ARC7095 (IHMA 2320843), Turkey, BSI, 2020) was no more than 0.25 µg/mL, the MIC ([2]; isolate ARC7156 (IHMA 2455450), Greece, RTI, 2021) was 8 µg/mL and the MIC ([2]; isolate ARC7158 (IHMA 2523738), Italy, BSI, 2021) was 0.25 µg/mL. It also gave an MIC ([2]; isolate ARC7159 (IHMA 2456229), Malaysia, RTI, 2021) of 0.25 µg/mL, an MIC ([2]; isolate ARC7160 (IHMA 2458626), Thailand, RTI, 2021) of 0.25 µg/mL and an MIC ([2]; isolate ARC7161 (IHMA 2429252), Ukraine, RTI, 2021) of 0.5 µg/mL. It also gave an MIC ([2]; isolate ARC7162 (IHMA 2411847), United States, BSI, 2021) of 0.25 µg/mL, an MIC ([2]; isolate ARC7163 (IHMA 2477704), United States, BSI, 2021) of 0.25 µg/mL and an MIC [3] of 1 µg/mL. The MIC ([4]; isolate ARC6949 (IHMA 1898982), Romania, RTI, 2018) was 0.5 µg/mL, the MIC ([4]; isolate ARC6951 (IHMA 1776233), Philippines, RTI, 2018) was no more than 0.25 µg/mL and the MIC ([4]; isolate ARC6952 (IHMA 1899008), Romania, RTI, 2018) was 1 µg/mL. For the same substance, the MIC ([4]; isolate ARC7087 (IHMA 2212062), Colombia, BSI, 2020) was no more than 0.25 µg/mL.
